“And” between values parts separate entries of the source, which are not always exact repeats. Equal entries are not always repeated. After the bases stand the sugars from the 5' end (letter, count) and the backbone: PS all phosphorothioate, else s phosphorothioate and o phosphodiester by linkage. Methylation of C is not given here. e = 2'-O-(2-methoxyethyl) (MOE); k = constrained ethyl (cEt); d = 2'-deoxy (DNA)
Target: IRF4
Conditions: ASO

Sequence	target mRNA inhibition (SK-MEL-28, 4 µM)	target mRNA inhibition (MM.1R, 1 µM)	other results
GATAAGGCACTACTTC (sugars k3 d10 k3, PS)	47%	–	–
GGGATTATATACTGGT (sugars kdddddddddkekeke, PS)	–	29%	–
CGTGTGCTTGCCAAGC (sugars kkdddddddddekeke, PS)	–	47% and 36%	–
CAACAGTGCCAGAGCA (sugars k3 d10 k3, PS)	11%	–	–
CGCCCATGAGTTGAAA (sugars k3 d10 k3, PS)	–	13%	–
TATCAAGACAAGGAAT (sugars k3 d10 k3, PS)	7%	–	–
CGCTACAGCTTCTGCA (sugars k3 d10 k3, PS)	20%	–	–
CCCAAGCCTTGAAGAG (sugars k4 d8 k4, PS)	22%	–	–
CAAGACCCCGTATCCC (sugars k3 d10 k3, PS)	44%	–	–
GGAAAGACAAGTGCCC (sugars k3 d10 k3, PS)	54%	–	–
AGCTTGCAGGTCTGGT (sugars k3 d10 k3, PS)	53%	–	–
TACTGCTTGAGGTTTT (sugars kkdddddddddkekek, PS)	–	22%	–
TCAGATACACACCCTC (sugars k3 d10 k3, PS)	37%	–	–
CATGGTATTTTTCCGT (sugars k3 d10 k3, PS)	–	38% and 48%	target mRNA inhibition (MM.1R, 0.0625 µM): 4%; target mRNA inhibition (MM.1R, 0.25 µM): 36%; target mRNA inhibition (MM.1R, 4 µM): 66%
GATCATAAAGGACAAT (sugars k3 d10 k3, PS)	30%	–	–
AGCCAAGGAGGCGGGC (sugars k3 d10 k3, PS)	-1%	–	–
CCCAAGATCGAGCGGT (sugars k3 d10 k3, PS)	28%	–	–
TAGGTAAGATCTCCAT (sugars k3 d10 k3, PS)	–	35% and 33%	–
AATTAAAGAGCGCATT (sugars k3 d10 k3, PS)	17%	–	–
TGGATCCTGAGAGTAA (sugars k3 d10 k3, PS)	–	0%	–
CACTCATCTTGACATT (sugars k3 d10 k3, PS)	36%	–	–
AGGGAGACAGCTCTAG (sugars k3 d10 k3, PS)	25%	–	–
AGGATAATATACCCCA (sugars k3 d10 k3, PS)	74%	–	–
GTCTAGACAGAGAGTC (sugars k3 d10 k3, PS)	2%	–	–
CTATGCTAGAGAACAT (sugars k3 d10 k3, PS)	23%	–	–
TTCGAGGTGATTCTCG (sugars k3 d10 k3, PS)	5%	–	–

Sequence	target mRNA inhibition (SK-MEL-28, 4 µM)	target mRNA inhibition (MM.1R, 1 µM)	other results
GATACAGCAGGCACTT (sugars k3 d10 k3, PS)	63%	–	–
CATGATGTATACCAAC (sugars k3 d10 k3, PS)	51%	–	–
TTTAAGTCATGTGTCA (sugars k3 d10 k3, PS)	50%	–	–
TGGTTGGCTGGTCTTT (sugars kdddddddddkekeke, PS)	–	31%	–
TGATGTGATAGCTGAG (sugars kkddddddddddkeke, PS)	–	54%	–
TGTTACCGATGCTTCA (sugars kkdddddddddekeke, PS)	–	35% and 49%	–
ACTGCTTGAGGTTTTC (sugars k2 d9 e3 k2, PS)	–	45%	–
GCAAAAAATATAACGG (sugars k3 d10 k3, PS)	47%	–	–
TTATATACTGGTTGGT (sugars kddddddddddkekek, PS)	–	22%	–
GCTCAGAATGAAGTTA (sugars k3 d10 k3, PS)	48%	–	–
GCAAGTGGAGGTCTTT (sugars k3 d10 k3, PS)	74% and 79%	–	–
GAAAACTCTAACCCTA (sugars k3 d10 k3, PS)	9%	–	–
TGTAACTGAGGACTCA (sugars k3 d10 k3, PS)	-2%	–	–
TCACTTGCCGCCGCCT (sugars k3 d10 k3, PS)	49%	–	–
CTGGGCCTTGCCAGTG (sugars k3 d10 k3, PS)	-14%	–	–
AATGCATAACACGGTG (sugars k3 d10 k3, PS)	49%	–	–
GCGGAGGACCTCGCCT (sugars k3 d10 k3, PS)	8%	–	–
GTAAGTGATAGGTATA (sugars k3 d10 k3, PS)	76% and 68%	–	–
GACAGATGGCATGCGA (sugars k3 d10 k3, PS)	–	16%	–
GAGGTTTTCCTAAATA (sugars k3 d10 k3, PS)	69%	–	target mRNA inhibition (SK-MEL-28, 0.185 µM): 20%; target mRNA inhibition (SK-MEL-28, 5 µM): 75%; target mRNA inhibition (SK-MEL-28, 15 µM): 89%
ACTGTTACCGATGCTT (sugars kddddddddddkekek, PS)	–	20%	–
CTTGTCTCGCCGCAAT (sugars k3 d10 k3, PS)	65% and 47%	–	–
GGGATTATATACTGGT (sugars kkdddddddddkdkdk, PS)	–	41%	–
AATGTGTATTACTCTT (sugars kkdddddddddkdkdk, PS)	–	10% and 15%	–
CGACAACTTTCCTGAA (sugars k3 d10 k3, PS)	21%	–	–
TTATGCCATGGACAAG (sugars k3 d10 k3, PS)	–	19%	–

Sequence	target mRNA inhibition (SK-MEL-28, 4 µM)	target mRNA inhibition (MM.1R, 1 µM)	other results
CAGACCTTATGCTTGG (sugars k3 d10 k3, PS)	10%	–	–
GTAGTATGAGAAACGG (sugars kkkdddddddddkeke, PS)	–	15%	–
CTGCTCACTAAGCTTG (sugars k3 d10 k3, PS)	73%	–	target mRNA inhibition (SK-MEL-28, 0.185 µM): 6% and 5% and -1%; target mRNA inhibition (SK-MEL-28, 15 µM): 78% and 80% and 94%
GGTCACAGGTAAGGGC (sugars k3 d10 k3, PS)	25%	–	–
GTGTGCTTGCCAAGCC (sugars k2 d9 e3 k2, PS)	–	75% and 62%	–
ACACTTTTAGAGAGGA (sugars kddddddddddkekek, PS)	–	-6%	–
CTAGATAGCATTCTTA (sugars k3 d10 k3, PS)	39%	–	–
ACAGAGAGTCCGACGC (sugars k3 d10 k3, PS)	–	-8%	–
AAGCAGTGATGTCAGG (sugars kkddddddddddkeke, PS)	–	74% and 76% and 56%	target mRNA inhibition (MM.1R, 0.0625 µM): 8%; target mRNA inhibition (MM.1R, 0.25 µM): 22%; target mRNA inhibition (MM.1R, 4 µM): 87%
ACCCATTTAATCTGTC (sugars k3 d10 k3, PS)	57%	–	–
GTCTTCCACAAGAACT (sugars k3 d10 k3, PS)	47%	–	–
AAGGTTCCTGTCACCT (sugars k3 d10 k3, PS)	-2%	–	–
GGTCAATTTTCACAGT (sugars k3 d10 k3, PS)	64%	–	–
TAGCATTATCTACCTC (sugars k3 d10 k3, PS)	66%	–	–
CGAAGAATTTTAGCAT (sugars k3 d10 k3, PS)	58%	–	–
AATGAAGATCCACTAG (sugars k3 d10 k3, PS)	61%	–	–
TTACACCCAGAAGTAC (sugars k3 d10 k3, PS)	5%	–	–
GTCTGAGGGAATCTGC (sugars k3 d10 k3, PS)	49%	–	–
GCAAGCTATATTAAAG (sugars k3 d10 k3, PS)	71%	-19%	target mRNA inhibition (MM.1R, 0.0625 µM): 1%; target mRNA inhibition (MM.1R, 0.074 µM): 17%; target mRNA inhibition (MM.1R, 0.222 µM): 26%; target mRNA inhibition (MM.1R, 0.25 µM): 1%; target mRNA inhibition (MM.1R, 0.666 µM): 41%; target mRNA inhibition (MM.1R, 2 µM): 82%; target mRNA inhibition (MM.1R, 4 µM): 1%
AGCATTTTATCATCCG (sugars kkkddddddddkekek, PS)	–	22%	–
GGCGGACACGCCCGAC (sugars k3 d10 k3, PS)	–	7%	–
TGTAACTCTGAGTAGA (sugars k3 d10 k3, PS)	43%	–	–
GATGGGACCGCCCTGG (sugars k3 d10 k3, PS)	–	-13%	–
TCCAACAGGCGGACAC (sugars k3 d10 k3, PS)	29%	–	–
ACAAGCATAAAAGGTT (sugars k3 d10 k3, PS)	4%	–	–
CTAAATTCTAGTTTGC (sugars k3 d10 k3, PS)	21%	–	–

Sequence	target mRNA inhibition (SK-MEL-28, 4 µM)	target mRNA inhibition (MM.1R, 1 µM)	other results
ATGTGATAGCTGAGCT (sugars kkddddddddddkeke, PS)	–	4%	–
TAAGCAAGTGGAGGTC (sugars k3 d10 k3, PS)	47%	–	–
GTAACAATACTGTAAG (sugars k3 d10 k3, PS)	55%	–	–
ATTTCACTGTAGGATT (sugars k3 d10 k3, PS)	38%	–	–
GCCCGGGAGAGCGGAG (sugars k3 d10 k3, PS)	–	-32%	–
CCTGTAGTATGAGAAA (sugars k3 d10 k3, PS)	57%	–	–
CTGTATGGAACCCCAA (sugars k3 d10 k3, PS)	–	3%	–
TACACTTTGTACGGGT (sugars k3 d10 k3, PS)	28%	–	–
CATGAAATCCAAGGTA (sugars k3 d10 k3, PS)	49%	–	–
AGTCAGTGTCAATACT (sugars k3 d10 k3, PS)	47%	–	–
TCCACTTTATCAAGAC (sugars k3 d10 k3, PS)	65%	–	–
GACTTAATTCTGGGTT (sugars k3 d10 k3, PS)	35%	–	–
GAAACAGAGACGCGGT (sugars k3 d10 k3, PS)	1%	–	–
CACAACTGCAGTTTGA (sugars k3 d10 k3, PS)	14%	–	–
CCCTTGCTGCAAATCC (sugars k3 d10 k3, PS)	–	-4%	–
GCACATCAATGTTTTA (sugars kkddddddddddkeke, PS)	–	49% and 50%	–
CTTCATTTACTGTTAC (sugars k3 d10 k3, PS)	31%	–	–
CCCCGTATCCCCGTAT (sugars k3 d10 k3, PS)	45%	–	–
ATTTTCACAAGCTGGG (sugars k3 d10 k3, PS)	39%	–	–
CTCAGCAAGTGTCTTC (sugars k3 d10 k3, PS)	45%	–	–
ACGGACGGAGGCGGCA (sugars k3 d10 k3, PS)	11%	–	–
TAAAATGTCACGCCCG (sugars k3 d10 k3, PS)	–	0%	–
GAAGCATTTTATCATC (sugars kkdddddddddkdkdk, PS)	–	1%	–
